From ChEMBL document CHEMBL1139791, “Highly efficient antitumor agents of heterocycles containing sulfur atom: linear and angular thiazonaphthalimides against human lung cancer cell in vitro” (Bioorg Med Chem, 2007) come the findings set out here.

Structures are written as SMILES.

One assay relates to A549. As to the kind of experiment: Cytotoxicity against human A549 cells after 72 hrs by sulforhodamine B dye assay. In kind it is functional, cell-based. The note with it: A549, 72 h.
A further assay has as its system P388. As to the kind of experiment: Cytotoxicity against mouse P388 cells after 48 hrs by tetrazolium-formazan method. Particulars: P388, 48 h. In kind it is functional, cell-based.

For the compound `CN(C)CCN1C(=O)c2cccc3cc4nc(Cl)sc4c(c23)C1=O`, the half-inhibitory concentration (IC50) in the assay on A549 was determined as 88 nM; in the assay with P388, 18.5 nM.
The matching figures for `CN(C)CCN1C(=O)c2cccc3c2c(cc2nc(N)sc23)C1=O`: 500 nM and 1030 nM.
The matching figures for `CN(C)CCNc1nc2cc3cccc4c3c(c2s1)C(=O)N(CCN(C)C)C4=O`: 30.6 nM and 8.31 nM.
In the case of `CN(C)CCN1C(=O)c2cccc3cc4nc(N)sc4c(c23)C1=O`, the values for the IC50 in the assay with A549 and in the assay with P388 were 0.8 nM and 5 nM, respectively.
The matching figures for `CN(C)CCN1C(=O)c2cccc3cc4ncsc4c(c23)C1=O`: 39.8 nM and 83.9 nM.
For `CN(C)CCN1C(=O)c2cccc3cc4nc(O)sc4c(c23)C1=O`, in that order: 45 nM and 52.5 nM.
The matching figures for `CN(C)CCCN1C(=O)c2cccc3c2c(cc2nc(N)sc23)C1=O`: 772 nM and 1230 nM.
In the case of `CN(C)CCCN1C(=O)c2cccc3cc4nc(N)sc4c(c23)C1=O`, the half-inhibitory concentration (IC50) is 21.8 nM with A549 and 294 nM with P388.
